Active and inactive are the calls of the source. The rule behind the calls is not given here.
Columns and labels:
[1] = system: SMMC-7721; test: Induction of apoptosis in human SMMC-7721 cells assessed as late apoptotic cells at 8 uM incubated for 48 hrs by AnnexinV-FITC/PI staining based flow cytometry (reference value: 1.51%); format: functional
[2] = system: SMMC-7721; test: Induction of cell cycle arrest in human SMMC-7721 cells assessed as downregulation of CDK4 protein expression at 2 to 8 uM incubated for 48 hrs by western blot analysis; format: functional, cell-based; details: dose 2-8 µM
[3] = system: HepG2; test: Antiproliferative activity against human HepG2 cells assessed as reduction in cell viability incubated for 48 hrs by MTT assay; format: functional, cell-based; details: HepG2, 48 h
[4] = system: HepG2; test: Induction of cell cycle arrest in human HepG2 cells assessed as accumulation of cells at G2/M phase at 8 uM incubated for 48 hrs by PI staining based flow cytometry (reference value: 17.89%); format: functional
[5] = system: SMMC-7721; test: Induction of apoptosis in human SMMC-7721 cells assessed as early apoptotic cells at 8 uM incubated for 48 hrs by AnnexinV-FITC/PI staining based flow cytometry (reference value: 1.13%); format: functional
[6] = system: HepG2; test: Induction of apoptosis in human HepG2 cells assessed as early apoptotic cells at 2 uM incubated for 48 hrs by AnnexinV-FITC/PI staining based flow cytometry (reference value: 3.41%); format: functional
[7] = system: SMMC-7721; test: Induction of apoptosis in human SMMC-7721 cells assessed as viable cells at 8 uM incubated for 48 hrs by AnnexinV-FITC/PI staining based flow cytometry (reference value: 85.1%); format: functional; details: read-out: Activity
[8] = system: SMMC-7721; test: Induction of cell cycle arrest in human SMMC-7721 cells assessed as accumulation of cells at G0/G1 phase at 4 uM incubated for 48 hrs by PI staining based flow cytometry (reference value: 59.57%); format: functional
[9] = system: SMMC-7721; test: Induction of cell cycle arrest in human SMMC-7721 cells assessed as downregulation of Cdc2 protein expression at 2 to 8 uM incubated for 48 hrs by western blot analysis; format: functional, cell-based; details: dose 2-8 µM
[10] = system: SMMC-7721; test: Antiproliferative activity against human SMMC-7721 cells assessed as reduction in cell viability incubated for 48 hrs by MTT assay; format: functional, cell-based; details: Homo sapiens, SMMC-7721, 48 h; read-out: IC50
[11] = system: SMMC-7721; test: Induction of apoptosis in human SMMC-7721 cells assessed as early apoptotic cells at 2 uM incubated for 48 hrs by AnnexinV-FITC/PI staining based flow cytometry (reference value: 1.13%); format: functional
[12] = system: HepG2; test: Induction of apoptosis in human HepG2 cells assessed as late apoptotic cells at 2 uM incubated for 48 hrs by AnnexinV-FITC/PI staining based flow cytometry (reference value: 3.23%); format: functional
[13] = system: SMMC-7721; test: Induction of cell cycle arrest in human SMMC-7721 cells assessed as accumulation of cells at G2/M phase at 2 uM incubated for 48 hrs by PI staining based flow cytometry (reference value: 15.49%); format: functional
[14] = system: HepG2; test: Induction of apoptosis in human HepG2 cells assessed as necrotic cells at 4 uM incubated for 48 hrs by AnnexinV-FITC/PI staining based flow cytometry (reference value: 2.22%); format: functional
[15] = system: HepG2; test: Induction of cell cycle arrest in human HepG2 cells assessed as upregulation of p21 protein expression at 2 to 8 uM incubated for 48 hrs by western blot analysis; format: functional, cell-based; details: dose 2-8 µM
[16] = system: SMMC-7721; test: Induction of apoptosis in human SMMC-7721 cells assessed as late apoptotic cells at 2 uM incubated for 48 hrs by AnnexinV-FITC/PI staining based flow cytometry (reference value: 1.51%); format: functional
[17] = system: SMMC-7721; test: Induction of cell cycle arrest in human SMMC-7721 cells assessed as downregulation of p34 protein expression at 2 to 8 uM incubated for 48 hrs by western blot analysis; format: functional, cell-based; details: dose 2-8 µM
[18] = system: HepG2; test: Induction of cell cycle arrest in human HepG2 cells assessed as accumulation of cells at S phase at 4 uM incubated for 48 hrs by PI staining based flow cytometry (reference value: 18%); format: functional
[19] = system: HepG2; test: Induction of apoptosis in human HepG2 cells assessed as early apoptotic cells at 4 uM incubated for 48 hrs by AnnexinV-FITC/PI staining based flow cytometry (reference value: 3.41%); format: functional
[20] = system: SMMC-7721; test: Induction of apoptosis in human SMMC-7721 cells assessed as viable cells at 2 uM incubated for 48 hrs by AnnexinV-FITC/PI staining based flow cytometry (reference value: 85.1%); format: functional; details: read-out: Activity
[21] = system: Hep 3B2; test: Antiproliferative activity against human Hep3B cells assessed as reduction in cell viability incubated for 48 hrs by MTT assay; format: functional, cell-based
[22] = system: SMMC-7721; test: Induction of apoptosis in human SMMC-7721 cells assessed as early apoptotic cells at 4 uM incubated for 48 hrs by AnnexinV-FITC/PI staining based flow cytometry (reference value: 1.13%); format: functional
[23] = system: HepG2; test: Induction of cell cycle arrest in human HepG2 cells assessed as accumulation of cells at S phase at 8 uM incubated for 48 hrs by PI staining based flow cytometry (reference value: 18%); format: functional
[24] = system: SMMC-7721; test: Induction of apoptosis in human SMMC-7721 cells assessed as necrotic cells at 2 uM incubated for 48 hrs by AnnexinV-FITC/PI staining based flow cytometry (reference value: 12.3%); format: functional
[25] = system: HepG2; test: Induction of cell cycle arrest in human HepG2 cells assessed as accumulation of cells at S phase at 2 uM incubated for 48 hrs by PI staining based flow cytometry (reference value: 18%); format: functional
[26] = system: HepG2; test: Induction of cell cycle arrest in human HepG2 cells assessed as accumulation of cells at G0/G1 phase at 4 uM incubated for 48 hrs by PI staining based flow cytometry (reference value: 64.11%); format: functional

Question: Which results are given for `COc1ccc(-c2oc3c(CC=C(C)C)c(OCCN4CCCC4)cc(O)c3c(=O)c2O[C@H]2O[C@H](C)[C@@H](O)[C@H](O)[C@@H]2O)cc1`?
Answer: Activity [1]: 8.46%; Activity [2]: Active; IC50 [3]: 7.6 µM; Activity [4]: 6.39%; Activity [5]: 3.28%; Activity [6]: 1.52%; viability at 8 µM [7]: 66.2%; Activity [8]: 65.57%; Activity [9]: Active; IC50 [10]: 3.1 µM; Activity [11]: 1.73%; Activity [12]: 6.26%; Activity [13]: 13.29%; Activity [14]: 3.21%; Activity [15]: Active; Activity [16]: 5.9%; Activity [17]: Active; Activity [18]: 9.28%; Activity [19]: 5.14%; viability at 2 µM [20]: 89.4%; IC50 [21]: 3.9 µM; Activity [22]: 2.54%; Activity [23]: 2.47%; Activity [24]: 2.96%; Activity [25]: 13.7%; Activity [26]: 80.03%

Reference: ChEMBL document CHEMBL5226390, “Synthesis and Structure-Activity Analysis of Icaritin Derivatives as Potential Tumor Growth Inhibitors of Hepatocellular Carcinoma Cells” (J Nat Prod, 2023)
